# Results from patent publication US20190022073A1, “PHARMACEUTICAL COMPOSITION COMPRISING RAPAMYCIN OR DERIVATIVE THEREOF” (NIPPON KAYAKU KABUSHIKI KAISHA, priority 2015, published 2019).
# Assay: pH of the stabilizer (additive) in water/ethanol mixture, measured by pH meter MM-60R (TOA DKK)
# Conditions: 5 mg/mL in water/EtOH=1:1 mixture
# Procedure: The pH of the (B) component can be measured by preparing 50% (v/v) ethanol aqueous solution containing 5 mg/mL of the (B) component, and measuring pH using commercially available pH meter. For example, pH can be measured by using MM-60R (TOA DKK).
row,SMILES,pH of the additive used as stabilizer
1,O=C1O[C@H]([C@@H](O)CO)C([O-])=C1O.[Na+] [sodium ascorbate],8.4
2,O=C([O-])CC(O)(CC(=O)[O-])C(=O)O.[Na+].[Na+] [disodium hydrogen citrate],6.3
